The target in assay [1] is T1, Protein mono-ADP-ribosyltransferase PARP12 (Homo sapiens) (UniProt Q9H0J9).
T1 sequence (whole entry): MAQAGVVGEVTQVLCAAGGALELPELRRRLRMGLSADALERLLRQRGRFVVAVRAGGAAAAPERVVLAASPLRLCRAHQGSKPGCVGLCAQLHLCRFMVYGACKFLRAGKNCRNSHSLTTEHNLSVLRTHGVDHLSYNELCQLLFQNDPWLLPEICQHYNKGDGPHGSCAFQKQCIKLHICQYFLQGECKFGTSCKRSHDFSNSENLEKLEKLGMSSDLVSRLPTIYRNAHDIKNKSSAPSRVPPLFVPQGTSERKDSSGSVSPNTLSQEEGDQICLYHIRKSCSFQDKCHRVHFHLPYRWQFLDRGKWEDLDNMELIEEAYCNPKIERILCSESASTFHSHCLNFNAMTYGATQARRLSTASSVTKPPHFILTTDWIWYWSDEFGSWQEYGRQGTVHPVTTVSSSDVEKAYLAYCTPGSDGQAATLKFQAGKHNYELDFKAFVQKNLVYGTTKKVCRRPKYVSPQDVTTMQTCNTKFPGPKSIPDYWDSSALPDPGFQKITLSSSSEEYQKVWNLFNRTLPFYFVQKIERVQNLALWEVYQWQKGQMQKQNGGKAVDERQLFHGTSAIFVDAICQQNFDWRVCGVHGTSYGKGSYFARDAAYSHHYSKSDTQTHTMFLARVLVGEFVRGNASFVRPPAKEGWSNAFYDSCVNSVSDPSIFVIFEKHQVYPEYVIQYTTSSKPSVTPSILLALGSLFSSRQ
The experiment in a line: Inhibition of PARP12 (unknown origin).

In assay [2] the target is T2, Protein mono-ADP-ribosyltransferase PARP8 (Homo sapiens) (UniProt Q8N3A8).
T2 sequence (whole entry): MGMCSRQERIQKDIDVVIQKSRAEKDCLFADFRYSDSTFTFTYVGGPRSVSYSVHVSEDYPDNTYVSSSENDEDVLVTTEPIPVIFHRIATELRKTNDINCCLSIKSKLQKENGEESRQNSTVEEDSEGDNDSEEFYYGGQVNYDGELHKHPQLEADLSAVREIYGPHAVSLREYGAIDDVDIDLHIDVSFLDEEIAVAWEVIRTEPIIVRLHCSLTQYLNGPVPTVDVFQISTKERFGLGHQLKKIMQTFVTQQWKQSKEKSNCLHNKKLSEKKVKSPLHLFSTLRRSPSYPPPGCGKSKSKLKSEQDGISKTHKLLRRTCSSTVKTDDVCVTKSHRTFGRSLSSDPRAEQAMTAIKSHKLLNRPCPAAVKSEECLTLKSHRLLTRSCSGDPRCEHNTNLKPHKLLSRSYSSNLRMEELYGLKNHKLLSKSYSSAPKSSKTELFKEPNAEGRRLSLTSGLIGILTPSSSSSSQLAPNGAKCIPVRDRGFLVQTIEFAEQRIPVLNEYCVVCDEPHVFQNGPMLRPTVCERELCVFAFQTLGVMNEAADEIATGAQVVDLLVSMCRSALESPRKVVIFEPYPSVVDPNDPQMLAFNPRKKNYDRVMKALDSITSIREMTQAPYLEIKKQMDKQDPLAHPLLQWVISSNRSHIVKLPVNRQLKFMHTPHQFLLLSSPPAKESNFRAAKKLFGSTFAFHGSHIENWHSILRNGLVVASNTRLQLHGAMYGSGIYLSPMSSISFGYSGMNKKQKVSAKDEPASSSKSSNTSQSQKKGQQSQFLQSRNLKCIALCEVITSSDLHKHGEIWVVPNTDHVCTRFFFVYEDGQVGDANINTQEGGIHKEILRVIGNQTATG
The experiment in a line: Inhibition of PARP8 (unknown origin).

Assay [3] addresses T3, Protein mono-ADP-ribosyltransferase PARP15 (Homo sapiens) (UniProt Q460N3).
T3 sequence (whole entry): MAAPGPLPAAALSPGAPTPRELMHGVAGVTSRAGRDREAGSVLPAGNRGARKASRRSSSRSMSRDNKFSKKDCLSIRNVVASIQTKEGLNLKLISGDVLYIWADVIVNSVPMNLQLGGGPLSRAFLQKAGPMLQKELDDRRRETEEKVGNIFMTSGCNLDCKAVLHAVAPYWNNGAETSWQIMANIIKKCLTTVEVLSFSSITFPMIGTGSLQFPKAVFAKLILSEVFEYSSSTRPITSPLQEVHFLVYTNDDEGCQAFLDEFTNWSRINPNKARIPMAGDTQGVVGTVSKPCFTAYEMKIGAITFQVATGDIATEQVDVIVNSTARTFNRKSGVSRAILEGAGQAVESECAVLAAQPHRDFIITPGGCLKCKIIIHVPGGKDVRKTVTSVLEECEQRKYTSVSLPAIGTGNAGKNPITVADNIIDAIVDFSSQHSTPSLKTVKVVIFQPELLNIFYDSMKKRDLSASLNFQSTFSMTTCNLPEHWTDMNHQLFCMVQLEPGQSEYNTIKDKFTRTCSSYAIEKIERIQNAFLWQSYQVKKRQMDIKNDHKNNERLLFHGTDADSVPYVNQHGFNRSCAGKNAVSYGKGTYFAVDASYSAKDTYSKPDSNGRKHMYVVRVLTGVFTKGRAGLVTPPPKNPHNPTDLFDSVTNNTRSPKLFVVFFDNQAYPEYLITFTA
Kind of assay: Inhibition of PARP15 (unknown origin).

In assay [4] the target is T4, Protein mono-ADP-ribosyltransferase PARP3 (Homo sapiens) (UniProt Q9Y6F1).
T4 sequence (whole entry): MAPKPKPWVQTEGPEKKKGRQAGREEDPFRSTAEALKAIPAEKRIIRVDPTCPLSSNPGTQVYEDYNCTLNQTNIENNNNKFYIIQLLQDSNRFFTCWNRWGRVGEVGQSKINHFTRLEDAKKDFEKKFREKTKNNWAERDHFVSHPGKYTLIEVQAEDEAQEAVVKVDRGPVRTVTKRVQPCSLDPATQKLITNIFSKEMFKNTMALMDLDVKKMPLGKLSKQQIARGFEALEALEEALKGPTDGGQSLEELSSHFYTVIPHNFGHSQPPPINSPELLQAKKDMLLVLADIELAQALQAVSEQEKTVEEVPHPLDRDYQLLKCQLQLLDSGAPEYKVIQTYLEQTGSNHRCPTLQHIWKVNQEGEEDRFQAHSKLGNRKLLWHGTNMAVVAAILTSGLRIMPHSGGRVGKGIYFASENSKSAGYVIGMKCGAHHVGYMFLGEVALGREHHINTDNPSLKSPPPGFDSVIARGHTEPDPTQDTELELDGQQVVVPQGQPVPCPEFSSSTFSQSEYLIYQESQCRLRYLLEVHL
Kind of assay: Inhibition of PARP3 (unknown origin).

From ChEMBL document CHEMBL5331077, “Combining pharmacophore models derived from DNA-encoded chemical libraries with structure-based exploration to predict Tankyrase 1 inhibitors” (Eur J Med Chem, 2023) come the findings set out here.

Activity calls are given as the source filed them. The calls are words filed in the database; no cut-off is given here.

For `CNC(=O)[C@H](CNC(=O)CCn1c(=O)[nH]c(=O)c2ccccc21)NC(=O)c1cnc2ccccc2c1`, the inhibition result in assay [1], in assay [2], in assay [3] and in assay [4] was “inactive” in each case.
For the molecule `Cc1cc(OCC(=O)NCCNC(=O)c2cccc(COc3ccccc3C(N)=O)c2)c2c3c(c(=O)oc2c1)CCC3`, the inhibition result in assay [1], in assay [2] and in assay [4] was “inactive” throughout. Moreover, the inhibition result in assay [3] was “Active”.
